For assay [1], the system named is chronic Hepatitis C genotype 1 infection. Description: Study NV21075 Phase 2 clinical study, virological response (undetectable HCV RNA) during the first 12 weeks of treatment. It counts as in vivo, human patients. Particulars: for percentage of patients with undetectable HCV RNA levels at the end of 12 weeks of treatment: limit of detection 15 IU/mL, preliminary interim analysis. An excerpt:
Study NV21075 was a randomized double-blinded multicenter Phase 2 clinical study to evaluate the efficacy and safety of danoprevir in combination with peginterferon alfa 2a and ribavirin (triple therapy combination) when dosed for twelve weeks in treatment-naïve patients with chronic Hepatitis C genotype 1 infection as compared to the currently approved combination of peginterferon alfa 2a and ribavirin (Standard of Care or SOC). Patients enrolled in Study NV21075 were randomized into one of four treatment groups (FIG. 1) (approximately 60 patients for Groups A-C, approximately 30 patients for Group D). In the response-guided treatment groups (as described below), patients with an extended RVR (eRVR, defined as undetectable HCV RNA from […]) stopped all therapy at Week 24.
Patients received double blinded experimental treatment with danoprevir at 300 mg TID (Group A), 600 mg BID (Group B), or 900 mg BID (Group C) and standard of care treatment (SOC, Pegasys 180 μg sc qw+Copegus 1000 mg (<75 kg) or 1200 mg (≧75 kg) po qd) for 12 weeks, followed by SOC for 12 weeks. Patients who achieve an RVR, defined as undetectable HCV RNA at week 4, and remain undetectable through week 22 (i.e. achieving eRVR) stopped all treatment at week 24. […] Treatment Group D: Patients received double blinded placebo treatment for 12 weeks, followed by SOC for 36 weeks for a total duration of 48 weeks.
For the interim analysis of NV21075, efficacy during the first 12 weeks of treatment was measured by the percentage of patients with virological response (undetectable HCV RNA as measured by the Roche Cobas® AmpliPrep/Cobas® Taqman® HCV Test v1.0 [limit of detection 15 IU/mL]). Patients were considered non-responders at a scheduled visit if they had missing data, which may have been due to an assessment that was missed or fell outside of the allowable window for that visit, or an early withdrawal from treatment with a missing follow-up assessment.

The subject of assay [2] is HCV. The note with it: RBV monotherapy; cited from earlier work.

The structures appear in SMILES notation.

As to `CC(C)(C)OC(=O)N[C@H]1CCCCC/C=C\[C@@H]2C[C@@]2(C(=O)NS(=O)(=O)C2CC2)NC(=O)[C@@H]2C[C@@H](OC(=O)N3Cc4cccc(F)c4C3)CN2C1=O` [Danoprevir, 4-Fluoro-1,3-dihydro-isoindole-2-carboxylic acid (Z)-(1S,4R,6S,14S,18R)-14-tert-butoxycarbonylamino-4-cyclopropanesulfonylaminocarbonyl-2,15-dioxo-3,16-diaza-tricyclo[14.3.0.0*4,6*]nonadec-7-en-18-yl ester], the entries for the “percentage of patients with undetectable HCV RNA levels at the end of 12 weeks of treatment” value in assay [1] (Treatment Group A: danoprevir 300 mg TID plus SOC), in assay [1] (Treatment Group B: danoprevir 600 mg BID plus SOC) and in assay [1] (Treatment Group C: danoprevir 900 mg BID plus SOC) were 88.1%, 89.2% and 92.0%, respectively. Also, the “change in mean HCV RNA levels” value in assay [1] (danoprevir plus SOC, within the first 2 to 4 weeks of treatment, remained lower than SOC up to Week 12) is reported as “precipitous decline”.
Take `NC(=O)c1ncn([C@@H]2O[C@H](CO)[C@@H](O)[C@H]2O)n1` [ribavirin, 1-((2R,3R,4S,5R)-3,4-Dihydroxy-5-hydroxymethyl-tetrahydro-furan-2-yl)-1H-[1,2,4]triazole-3-carboxylic acid amide]: the “effect on the replication of HCV” value in assay [2] is “little or no effect”.

The values above are taken from patent US20130137084A1, “Single Nucleotide Polymorphism on Chromosome 15 That Predicts HCV Treatment Responses” (Roche Molecular Systems, Inc., priority 2011, published 2013).
